Like-named read-outs stand apart in the source and are kept apart here. Starred links: 1 amine or outer side, 2 acyl side, 3 side chain; linkers in the order of their positions; H or OH if unused. Positions of bridges follow the written chain, without caps; N, C: chain ends. Residues, ends and D or L forms follow the SMILES beside them. *: point of attachment. C20 diacid = O=C(O)CCCCCCCCCCCCCCCCCCC(=O)*; γGlu = O=C(O)[C@H](CCC(=O)[*:2])N[*:1]; AEEA = NCCOCCOCC(=O)O
Experiments:
[1] = target: T1, human amylin receptor (amylin 3(a) receptor: human calcitonin receptor + RAMP-3) (Homo sapiens, UniProt O60896+P30988); test: Assay (II)a functional CRE-luciferase assay, human amylin receptor; format: cell-based
T1 construct: expressed in transfected cells; host or cells: BHK570
T1 sequence (P30988 25-474): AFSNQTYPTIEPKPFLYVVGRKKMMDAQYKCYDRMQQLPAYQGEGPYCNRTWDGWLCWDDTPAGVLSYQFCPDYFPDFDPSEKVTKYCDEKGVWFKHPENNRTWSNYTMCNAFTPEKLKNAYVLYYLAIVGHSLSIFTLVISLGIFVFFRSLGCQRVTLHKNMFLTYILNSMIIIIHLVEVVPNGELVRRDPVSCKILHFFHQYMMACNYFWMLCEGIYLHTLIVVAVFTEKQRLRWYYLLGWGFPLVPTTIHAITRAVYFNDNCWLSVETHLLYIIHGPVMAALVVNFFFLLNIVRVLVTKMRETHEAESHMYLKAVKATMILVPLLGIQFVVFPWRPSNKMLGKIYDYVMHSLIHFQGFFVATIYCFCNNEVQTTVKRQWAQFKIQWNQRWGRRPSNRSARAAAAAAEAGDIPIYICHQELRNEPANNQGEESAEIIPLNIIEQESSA
T1 sequence (O60896 24-148 partner): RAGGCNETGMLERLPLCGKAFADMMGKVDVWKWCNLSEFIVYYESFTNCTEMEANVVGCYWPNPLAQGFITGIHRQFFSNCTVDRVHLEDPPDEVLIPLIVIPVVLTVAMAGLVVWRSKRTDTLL

[2] = target: T2, human calcitonin receptor (Homo sapiens, UniProt P30988); test: Assay (II)a functional CRE-luciferase assay, human calcitonin receptor; format: cell-based
T2 construct: expressed in transfected cells; host or cells: BHK570
T2 sequence (P30988 25-474): T1 sequence (P30988 25-474)

[3] = Assay (III) ThT fibrillation assay for physical stability; format: physicochemical; conditions: ThT fibrillation assay
Description: ASSAY (III)—ThT Fibrillation Assays for the Assessment of Physical Stability of Protein formulations Low physical stability of a polypeptide may lead to amyloid fibril formation, which is observed as well-ordered, thread-like macromolecular structures in the sample eventually resulting in gel formation. This has traditionally been measured by visual inspection of the sample. However, that kind of measurement is very subjective and depending on the observer. Therefore, the application of a small molecule indicator probe is much more advantageous. Thioflavin T (ThT) is such a probe and has a distinct fluorescence signature when binding to fibrils [Naiki et al. (1989) Anal. Biochem. 177, 244-249; LeVine (1999) Methods. Enzymol. […], 274-284]. The time course for fibril formation can be described by a sigmoidal curve with the following expression [Nielsen et al. (2001) Biochemistry 40, 6036-6046]: [formula] Here, F is the ThT fluorescence at the time t. The constant t0 is the time needed to reach 50% of maximum fluorescence. […] Few of those intermediates nucleate to form a template onto which further intermediates may assembly and the fibrillation proceeds. The lag-time corresponds to the interval in which the critical mass of nucleus is built up and the apparent rate constant is the rate with which the fibril itself is formed. Sample Preparation Samples were prepared freshly before each assay. Each sample composition is described in each example. The pH of the sample was adjusted to the desired value using appropriate amounts of concentrated NaOH and HClO4 or HCl. Thioflavin T was added to the samples from a stock solution in H2O to a final concentration of 1 μM. Sample aliquots of 200 μl were placed in a 96 well microtiter plate (Packard OptiPlate™-96, white polystyrene). Usually, four or eight replica of each sample (corresponding to one test condition) were placed in one column of wells. The plate was sealed with Scotch Pad (Qiagen). Incubation and Fluorescence Measurement Incubation at given temperature, shaking and measurement of the ThT fluorescence emission were done in a Fluoroskan Ascent FL fluorescence platereader or Varioskan platereader (Thermo Labsystems). The temperature was adjusted to 37° C. The orbital shaking was adjusted to 960 rpm with an amplitude of 1 mm in all the presented data. Fluorescence measurement was done using excitation through a 444 nm filter and measurement of emission through a 485 nm filter. Each run was initiated by incubating the plate at the assay temperature for 10 min. The plate was measured every 20 minutes for a desired period of time. Between each measurement, the plate was shaken and heated as described. Data Handling The measurement points were saved in Microsoft Excel format for further processing and curve drawing and fitting was performed using GraphPad Prism. The background emission from ThT in the absence of fibrils was negligible. The data points are typically a mean of four or eight samples and shown with standard deviation error bars. Only data obtained in the same experiment (i.e. samples on the same plate) are presented in the same graph ensuring a relative measure of fibrillation between experiments. The data set may be fitted to Eq. (1). However, since full sigmodial curves in this case are not always achieved during the measurement time, the degree of fibrillation is expressed as ThT fluorescence tabulated as the mean of the samples and shown with the standard deviation at various time points. Measurement of Initial and Final Concentrations The polypeptide concentration in each of the tested formulations were measured both before application in the ThT fibrillation assay (“Initial”) and after completion of the ThT fibrillation (“After ThT assay”). Concentrations were determined by reverse HPLC methods using a pramlintide standard as a reference. Before measurement after completion 150 μl was collected from each of the replica and transferred to an Eppendorf tube. […]

[4] = Assay (IV) determination of solubility; format: physicochemical
How it was run: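 Stock ~500 nmol/ml in water; 1:1 with 100 mM buffer, pH 3.0–8.0 (glycylglycine ≤5.0, bistrispropane ≥6.0); 18 h RT; spin; HPLC quantitation of soluble polypeptide.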

[5] = Table 7, human calcitonin (CTa) receptor
[6] = Table 2, BHK amylin 3(a)-receptor/CRE-luc cells
[7] = Table 3, BHK amylin 3(a)-receptor/CRE-luc cells
[8] = Table 11, read-out: CTa receptor human EC50
[9] = pH 3, pH 3.0, read-out: Solubility pH 3.0
[10] = pH 4, pH 4.0, 18 hours at room temperature, Table 2, read-out: Solubility pH 4.0
[11] = pH 4, pH 4.0, read-out: Solubility pH 4.0
[12] = pH 5, pH 5.0, read-out: Solubility pH 5.0
[13] = pH 6, pH 6.0, read-out: Solubility pH 6.0
[14] = pH 6.5, pH 6.5, read-out: Solubility pH 6.5
[15] = pH 7, pH 7.0, 18 hours at room temperature, Table 3, read-out: Solubility pH 7.0
[16] = pH 7, pH 7.0, read-out: Solubility pH 7.0
[17] = pH 7.5, pH 7.5, read-out: Solubility pH 7.5
[18] = pH 8, pH 8.0, read-out: Solubility pH 8.0

EC50 [2, 5] [nM] | EC50 [1, 6] [nM] | EC50 [1, 7] [nM] | EC50 ([1]; Table 4) [nM] | EC50 ([1]; Table 6, human amylin receptor) [nM] | EC50 ([1]; Table 7, human amylin receptor) [nM] | EC50 ([1]; Table 11) [nM] | EC50 [2, 8] [nM] | solubility [4, 9] [µM] | solubility [4, 10] [µM] | solubility [4, 11] [µM] | solubility [4, 12] [µM] | solubility [4, 13] [µM] | solubility [4, 14] [µM] | solubility [4, 15] [µM] | solubility [4, 16] [µM] | solubility [4, 17] [µM] | solubility [4, 18] [µM] | SMILES | further results
0.168 | – | – | – | – | – | – | – | – | – | – | – | – | – | – | – | – | – | CC[C@H](C)[C@H](NC(=O)[C@@H]1CCCN1C(=O)CNC(=O)[C@H](Cc1ccccc1)NC(=O)[C@H](CC(N)=O)NC(=O)[C@H](CC(N)=O)NC(=O)[C@H](CO)NC(=O)[C@H](CO)NC(=O)[C@H](Cc1c[nH]cn1)NC(=O)[C@H](CCCNC(=N)N)NC(=O)[C@H](CC(C)C)NC(=O)[C@H](Cc1ccccc1)NC(=O)[C@H](CCC(=O)O)NC(=O)[C@H](C)NC(=O)[C@H](CC(C)C)NC(=O)[C@H](CCCNC(=N)N)NC(=O)[C@H](CCC(N)=O)NC(=O)[C@@H](NC(=O)[C@H](C)NC(=O)[C@@H]1CSSC[C@H](NC(=O)[C@H](CCCNC(=N)N)NC(=O)[C@H](CCC(=O)O)NC(=O)CC[C@H](NC(=O)CCCCCCCCCCCCCCCCCCC(=O)O)C(=O)O)C(=O)N[C@@H](CC(N)=O)C(=O)N[C@@H]([C@@H](C)O)C(=O)N[C@@H](C)C(=O)N[C@@H]([C@@H](C)O)C(=O)N1)[C@@H](C)O)C(=O)N[C@@H](CC(C)C)C(=O)N1CCC[C@H]1C(=O)N1CCC[C@H]1C(=O)N[C@H](C(=O)N[C@@H](CC(N)=O)C(=O)N[C@H](C(=O)NCC(=O)N[C@@H](CO)C(=O)N[C@@H](CC(N)=O)C(=O)N[C@H](C(=O)N1CCC[C@H]1C(N)=O)[C@@H](C)O)C(C)C)[C@@H](C)O [Example 156, N-alpha-[(S)-4-Carboxy-4-(19-carboxynonadecanoylamino)butyryl]-Glu-[Arg1,Glu14,Arg17,Pro37]-pramlintide] ({C20 diacid-γGlu}-ERCNTATCATQRLAEFLRHSSNNFGPILPPTNVGSNTP-NH2; disulfide 3-8 (inferred)) | EC50 ([1]; Table 5): 0.066 nM; ThT pH 4.0 lag time [3]: >45 h; ThT pH 4.0 lag time (h) [3]: >45 h
0.113 | 0.203 | 0.203 | 0.203 | 0.203 | 0.203 | 0.203 | 0.113 | > 200 | > 200 | > 200 | > 200 | > 200 | > 200 | > 200 | > 200 | > 200 | > 200 | CC[C@H](C)[C@H](NC(=O)[C@@H]1CCCN1C(=O)CNC(=O)[C@H](Cc1ccccc1)NC(=O)[C@H](CC(N)=O)NC(=O)[C@H](CCC(=O)O)NC(=O)[C@H](CO)NC(=O)[C@H](CO)NC(=O)[C@H](Cc1c[nH]cn1)NC(=O)[C@H](Cc1c[nH]cn1)NC(=O)[C@H](CC(C)C)NC(=O)[C@H](Cc1ccccc1)NC(=O)[C@H](CCC(=O)O)NC(=O)[C@H](C)NC(=O)[C@H](CC(C)C)NC(=O)[C@H](CCCNC(=N)N)NC(=O)[C@H](CCC(N)=O)NC(=O)[C@@H](NC(=O)[C@H](C)NC(=O)[C@@H]1CSSC[C@H](NC(=O)[C@H](CCCCN)NC(=O)COCCOCCNC(=O)COCCOCCNC(=O)CC[C@H](NC(=O)CCCCCCCCCCCCCCCCCCC(=O)O)C(=O)O)C(=O)N[C@@H](CC(N)=O)C(=O)N[C@@H]([C@@H](C)O)C(=O)N[C@@H](C)C(=O)N[C@@H]([C@@H](C)O)C(=O)N1)[C@@H](C)O)C(=O)N[C@@H](CC(C)C)C(=O)N1CCC[C@H]1C(=O)N1CCC[C@H]1C(=O)N[C@H](C(=O)N[C@@H](CC(N)=O)C(=O)N[C@H](C(=O)NCC(=O)N[C@@H](CO)C(=O)N[C@@H](CC(N)=O)C(=O)N[C@H](C(=O)N1CCC[C@H]1C(N)=O)[C@@H](C)O)C(C)C)[C@@H](C)O [Example 167] ({C20 diacid-γGlu-AEEA-AEEA}-KCNTATCATQRLAEFLHHSSENFGPILPPTNVGSNTP-NH2; disulfide 2-7) | –
0.085 | 0.071 | 0.071 | 0.071 | 0.071 | 0.071 | 0.071 | 0.085 | > 200 | > 200 | > 200 | > 200 | > 200 | > 200 | > 200 | > 200 | > 200 | > 200 | CC[C@H](C)[C@H](NC(=O)[C@@H]1CCCN1C(=O)CNC(=O)[C@H](Cc1ccccc1)NC(=O)[C@H](CC(N)=O)NC(=O)[C@H](CCCCN)NC(=O)[C@H](CO)NC(=O)[C@H](CO)NC(=O)[C@H](Cc1c[nH]cn1)NC(=O)[C@H](Cc1c[nH]cn1)NC(=O)[C@H](CC(C)C)NC(=O)[C@H](Cc1ccccc1)NC(=O)[C@H](CCC(=O)O)NC(=O)[C@H](C)NC(=O)[C@H](CC(C)C)NC(=O)[C@H](CCCNC(=N)N)NC(=O)[C@H](CCC(N)=O)NC(=O)[C@@H](NC(=O)[C@H](C)NC(=O)[C@@H]1CSSC[C@H](NC(=O)[C@H](CCCCN)NC(=O)COCCOCCNC(=O)COCCOCCNC(=O)CC[C@H](NC(=O)CCCCCCCCCCCCCCCCCCC(=O)O)C(=O)O)C(=O)N[C@@H](CC(N)=O)C(=O)N[C@@H]([C@@H](C)O)C(=O)N[C@@H](C)C(=O)N[C@@H]([C@@H](C)O)C(=O)N1)[C@@H](C)O)C(=O)N[C@@H](CC(C)C)C(=O)N1CCC[C@H]1C(=O)N1CCC[C@H]1C(=O)N[C@H](C(=O)N[C@@H](CC(N)=O)C(=O)N[C@H](C(=O)NCC(=O)N[C@@H](CO)C(=O)N[C@@H](CC(N)=O)C(=O)N[C@H](C(=O)N1CCC[C@H]1C(N)=O)[C@@H](C)O)C(C)C)[C@@H](C)O [Example 168, N-alpha-[2-(2-{2-[2-(2-{2-[(S)-4-Carboxy-4-(19-carboxyheptadecanoylamino)butyrylamino]ethoxy}ethoxy)acetylamino]ethoxy}ethoxy)acetyl]-[Glu14,His17,Lys21,Pro37]-pramlintide] ({C20 diacid-γGlu-AEEA-AEEA}-KCNTATCATQRLAEFLHHSSKNFGPILPPTNVGSNTP-NH2; disulfide 2-7) | –

Source: patent publication US8722849B2, “Polypeptides” (Novo Nordisk A/S, priority 2011, dated 2014)
